Reference: patent US20260131016A1, “NOVEL AURISTATIN ANALOGS AND IMMUNOCONJUGATES THEREOF” (ADCENTRX THERAPEUTICS INC., priority 2021, published 2026)

Columns and labels:
[1] = system: HCC1954 breast ductal carcinoma; assay: Cell viability (Cell Titer Glo 2.0) in HCC1954, 120 hours; assay type: cell-based; settings: for potency compared to the 1,4-NH2 configuration of the P5 moiety in 19 and 26: HCC1954 and T47D assays; for IC50: Homo sapiens, HCC1954, 120 h, read-out: IC50 (nM), in vitro potency in HCC1954
Experimental: (§1) HCC1954 breast ductal carcinoma and T47D cells (ATCC, Manassas, VA, USA) were seeded into 384-well white-walled culture plates and allowed to adhere for 2-4 hours. Cells were then treated at least in duplicate by addition of 5-fold serially diluted test articles prepared at 2× final concentration and incubated at 37° C. for 120 hours. Cell viability following treatment was determined by Cell Titer Glo 2.0 Assay (Promega, Madison, WI, USA) and normalized to non-treated controls. Dose-response relationships were analyzed using GraphPad Prism (La Jolla, CA, USA), and IC50 values were derived from non-linear regression analyses using a 4-parameter logistic equation.

T47D cells = assay: Cell viability (Cell Titer Glo 2.0) in T47D cells, 120 hours; assay type: cell-based
Experimental: as §1

[2] = N-methylated analogs 1,2-/1,3-/1,4-NH2, relative to the 1,3-NH2 analog (=1)
[3] = NCH3-amide compared to its NH-amide analog (=1)

Row | SMILES | potency compared to the 1,4-NH2 configuration of the P5 moiety in 19 and 26 [1] | IC50 [1] | IC50 (fold difference) HCC1954 [1, 2] | IC50 (fold difference) HCC1954 [1, 3] | IC50 (fold difference) T47D (T47D cells; [2]) | IC50 (fold difference) T47D (T47D cells; [3])
1 | CC[C@H](C)[C@@H]([C@@H](CC(=O)N1CCC[C@H]1[C@H](OC)[C@@H](C)C(=O)N(C)CCc1cccc(N)c1)OC)N(C)C(=O)[C@@H](NC(=O)[C@H](C(C)C)N(C)C)C(C)C [Compound 1, (S)-N-((3R,4S,5S)-1-((S)-2-((1R,2R)-3-((3-aminophenethyl)(methyl)amino)-1-methoxy-2-methyl-3-oxopropyl)pyrrolidin-1-yl)-3-methoxy-5-methyl-1-oxoheptan-4-yl)-2-((S)-2-(dimethylamino)-3-methylbutanamido)-N,3-dimethylbutanamide] | more potent | < 5 nM | 1 fold difference | 1.5 fold difference | 1 fold difference | 1.6 fold difference
2 | CC[C@H](C)[C@@H]([C@@H](CC(=O)N1CCC[C@H]1[C@H](OC)[C@@H](C)C(=O)N(C)CCc1cccc(N)c1)OC)N(C)C(=O)[C@@H](NC(=O)[C@H](C)N(C)C)C(C)C [Compound 2, (S)-N-((3R,4S,5S)-1-((S)-2-((1R,2R)-3-((3-aminophenethyl)(methyl)amino)-1-methoxy-2-methyl-3-oxopropyl)pyrrolidin-1-yl)-3-methoxy-5-methyl-1-oxoheptan-4-yl)-2-((S)-2-(dimethylamino)propanamido)-N,3-dimethylbutanamide] | more potent | < 5 nM | 1 fold difference |  | 1 fold difference | 
3 | CC[C@H](C)[C@@H]([C@@H](CC(=O)N1CCC[C@H]1[C@H](OC)[C@@H](C)C(=O)N(C)CCc1ccccc1N)OC)N(C)C(=O)[C@@H](NC(=O)[C@H](C(C)C)N(C)C)C(C)C [Compound 14, (S)-N-((3R,4S,5S)-1-((S)-2-((1R,2R)-3-((2-aminophenethyl)(methyl)amino)-1-methoxy-2-methyl-3-oxopropyl)pyrrolidin-1-yl)-3-methoxy-5-methyl-1-oxoheptan-4-yl)-2-((S)-2-(dimethylamino)-3-methylbutanamido)-N,3-dimethylbutanamide] | more potent | < 5 nM | 0.8 fold difference | 2.0 fold difference | 1.3 fold difference | 1.8 fold difference
4 | CC[C@H](C)[C@@H]([C@@H](CC(=O)N1CCC[C@H]1[C@H](OC)[C@@H](C)C(=O)N(C)CCc1ccccc1N)OC)N(C)C(=O)[C@@H](NC(=O)[C@H](C)N(C)C)C(C)C [Compound 16, (S)-N-((3R,4S,5S)-1-((S)-2-((1R,2R)-3-((2-aminophenethyl)(methyl)amino)-1-methoxy-2-methyl-3-oxopropyl)pyrrolidin-1-yl)-3-methoxy-5-methyl-1-oxoheptan-4-yl)-2-((S)-2-(dimethylamino)propanamido)-N,3-dimethylbutanamide] | more potent | < 5 nM | 1.8 fold difference |  | 3.4 fold difference | 
5 | CC[C@H](C)[C@@H]([C@@H](CC(=O)N1CCC[C@H]1[C@H](OC)[C@@H](C)C(=O)N(C)CCc1ccc(N)cc1)OC)N(C)C(=O)[C@@H](NC(=O)[C@H](C(C)C)N(C)C)C(C)C [Compound 19, (S)-N-((3R,4S,5S)-1-((S)-2-((1R,2R)-3-((4-aminophenethyl)(methyl)amino)-1-methoxy-2-methyl-3-oxopropyl)pyrrolidin-1-yl)-3-methoxy-5-methyl-1-oxoheptan-4-yl)-2-((S)-2-(dimethylamino)-3-methylbutanamido)-N,3-dimethylbutanamide] |  | < 5 nM | 2.1 fold difference | 2.3 fold difference | 3.8 fold difference | 6.9 fold difference
6 | CC[C@H](C)[C@@H]([C@@H](CC(=O)N1CCC[C@H]1[C@H](OC)[C@@H](C)C(=O)NCCc1cccc(N)c1)OC)N(C)C(=O)[C@@H](NC(=O)[C@H](C(C)C)N(C)C)C(C)C [Compound 20, (S)-N-((3R,4S,5S)-1-((S)-2-((1R,2R)-3-((3-aminophenethyl)amino)-1-methoxy-2-methyl-3-oxopropyl)pyrrolidin-1-yl)-3-methoxy-5-methyl-1-oxoheptan-4-yl)-2-((S)-2-(dimethylamino)-3-methylbutanamido)-N,3-dimethylbutanamide] |  |  |  | 1 fold difference |  | 1 fold difference
7 | CC[C@H](C)[C@@H]([C@@H](CC(=O)N1CCC[C@H]1[C@H](OC)[C@@H](C)C(=O)NCCc1ccccc1N)OC)N(C)C(=O)[C@@H](NC(=O)[C@H](C(C)C)N(C)C)C(C)C [Compound 21, (S)-N-((3R,4S,5S)-1-((S)-2-((1R,2R)-3-((2-aminophenethyl)amino)-1-methoxy-2-methyl-3-oxopropyl)pyrrolidin-1-yl)-3-methoxy-5-methyl-1-oxoheptan-4-yl)-2-((S)-2-(dimethylamino)-3-methylbutanamido)-N,3-dimethylbutanamide] |  |  |  | 1 fold difference |  | 1 fold difference
8 | CC[C@H](C)[C@@H]([C@@H](CC(=O)N1CCC[C@H]1[C@H](OC)[C@@H](C)C(=O)NCCc1ccc(N)cc1)OC)N(C)C(=O)[C@@H](NC(=O)[C@H](C(C)C)N(C)C)C(C)C [Compound 22, (S)-N-((3R,4S,5S)-1-((S)-2-((1R,2R)-3-((4-aminophenethyl)amino)-1-methoxy-2-methyl-3-oxopropyl)pyrrolidin-1-yl)-3-methoxy-5-methyl-1-oxoheptan-4-yl)-2-((S)-2-(dimethylamino)-3-methylbutanamido)-N,3-dimethylbutanamide] |  |  |  | 1 fold difference |  | 1 fold difference
9 | CC[C@H](C)[C@@H]([C@@H](CC(=O)N1CCC[C@H]1[C@H](OC)[C@@H](C)C(=O)N(C)CCc1ccc(N)cc1)OC)N(C)C(=O)[C@@H](NC(=O)[C@H](C)N(C)C)C(C)C [Compound 26, (S)-N-((3R,4S,5S)-1-((S)-2-((1R,2R)-3-((4-aminophenethyl)(methyl)amino)-1-methoxy-2-methyl-3-oxopropyl)pyrrolidin-1-yl)-3-methoxy-5-methyl-1-oxoheptan-4-yl)-2-((S)-2-(dimethylamino)propanamido)-N,3-dimethylbutanamide] |  | 5 to 10 nM | 4.2 fold difference |  | 12.7 fold difference | 
